Measured values reported in patent publication US10130605B2, “Compositions for use in treating inflammatory bowel diseases and intestinal colitis” (TaiRx Inc., priority 2017, dated 2018).
Entries after “also recorded” stand apart in the source; their conditions may differ.

What was measured:
Type in all cases: in vivo
DSS-induced colitis mice [1] = assay: DSS-induced acute colitis in mouse: disease activity index (DAI) score; conditions: for DAI: Diacerein 30 and 60 mg/kg; for decrease in fecal blood score than the DSS-induced vehicle group: not statistically significant
Description: (§1) Induction of acute colitis. Acute colitis was induced by giving mice with 2.5% DSS (MP Biomedicals) in a drinking water for 5 consecutive days. The DSS administration was taken place in two separate days; where the mice were divided into two groups based on their body weight before the day of the DSS administration.
(§2) Route of drug administration.
(§3) Treatment doses. Diacerein was administered at 2 dose levels of 30 and 60 mg/kg, once daily for 5 days.
(§4) Animals. Eight-week-old female C57BL/6 mice were obtained from Japan SLC, Inc. (Japan). All animals used in the study were housed and cared in accordance with the Japanese Pharmacological Society Guidelines for Animal Use.
Measurement of disease activity index score. A disease activity index (DAI) was calculated daily by summation of the following parameters: • (i) Weight loss (0=no weight loss; 1=1-5% weight loss; 2=6-10% weight loss; 3=11-15% weight loss; and 4=>15% weight loss); • (ii) Occult blood positivity (0=no bleeding; 1=occult blood test (+); 2=occult blood test (++); 3=occult blood test (+++); and 4=gross bleeding from the anus); and • (iii) Stool consistency (0=normal stools; 2=loose stools; 4=diarrhea).
(§5) The pharmacological effects of aloe-emodin, emodin, and rhein were also respectively tested using the same protocol described above.

DSS-induced colitis mice [2] = assay: DSS-induced acute colitis in mouse: histological analysis of HE-stained colon sections; conditions: for loss of crypt and epithelium in HE-stained colon sections vs Vehicle group: FIG. 5A; for loss/damage of crypt and epithelium in colon sections vs DSS-induced vehicle group: FIGS. 5B-C, same protocol, dose not given
Description: as §1, §2, §3, §4
Histological analyses. For HE staining, sections were cut from paraffin blocks of colon tissue prefixed in 10% neutral buffered formalin (Wako Pure Chemical Industries, Japan) and stained with Lillie-Mayer's Hematoxylin (Muto Pure Chemicals Co., Ltd., Japan) and eosin solution (Wako Pure Chemical Industries). Representative photos of the changes observed were captured from each group.
as §5

DSS-induced colitis mice [3] = assay: DSS-induced acute colitis in mouse: body weight, colon length, colon weight, general condition; conditions: for Colon length / Colon weight / Colon-to-BW ratio: colon-to-body weight ratio / BW: body weight on the day of sacrifice: sacrifice day 5; for Colon length / Colon weight / Colon-to-BW ratio: colon-to-body weight ratio: geometric mean ± SEM; for BW: body weight on the day of sacrifice: mean ± SEM, n=8
Description: as §1, §2, §3, §4
The average body weight of mice is about 18-22 grams.
The viability, clinical signs and behavior were monitored daily. Body weight was recorded before the treatment. […] Mice were sacrificed by exsanguinations through direct cardiac puncture under isoflurane anesthesia (Pfizer Inc.). Colon length and weight were measured from the end of the cecum to the anus.
as §5

DSS-induced colitis mice [4] = assay: DSS-induced acute colitis in mouse: macroscopic scoring of colon tissue (colonic damage score); conditions: for colonic damage score / diarrhea score / thickness score / ulceration score: sacrifice day 5
Description: as §1, §2, §3, §4
Macroscopic scoring of colon tissue. Colonic damage was scored using the published criteria of measurement (Wallace et al, Gastroenterology, 1992, 102, 18-27). […]

[5] = Diacerein 30 mg/kg PO QD day 0-4
[6] = Diacerein 60 mg/kg PO QD day 0-4
[7] = Mesalazine 100 mg/kg, Day 2 and 3
[8] = Mesalazine, dose not given, Day 2 and 3
[9] = both Mesalazine groups (20 and 100 mg/kg), Day 5
[10] = Mesalazine 20 mg/kg PO QD day 0-4
[11] = Mesalazine 100 mg/kg PO QD day 0-4
[12] = summary b147-b150, same protocol, dose not given
[13] = summary b148-b149, same protocol, dose not given
[14] = summary b149-b150, same protocol, dose not given

## CC(=O)Oc1cccc2c1C(=O)c1c(OC(C)=O)cc(C(=O)O)cc1C2=O [Diacerein, 1,8-Diacetoxy-3-carboxyanthraquinone]
DSS-induced colitis mice [1]; Diacerein 30 mg/kg, during the treatment
  fecal blood score vs Vehicle group (in words): decreased slight fecal blood
DSS-induced colitis mice [1]; Diacerein 60 mg/kg, during the treatment
  fecal blood score vs Vehicle group (in words): more significant reduction
DSS-induced colitis mice [1]; Day 4 (vehicle 6.4)
  DAI: ~5.1
DSS-induced colitis mice [1]; Day 5 (vehicle 7.1)
  DAI: ~6.3
DSS-induced colitis mice [1]; Diacerein treatment groups (30 and 60 mg/kg), Day 4, p<0.05 (vehicle 1.0)
  body weight score: 0.1-0.3
DSS-induced colitis mice [1]; Diacerein treatment groups (30 and 60 mg/kg), Day 5 (vehicle 1.1)
  body weight score: 0.6-0.9
DSS-induced colitis mice [1]; both Diacerein groups (30 and 60 mg/kg), Day 5
  decrease in fecal blood score than the DSS-induced vehicle group: 11.4%
DSS-induced colitis mice [2]; Diacerein treatment groups (30 and 60 mg/kg)
  loss of crypt and epithelium in HE-stained colon sections vs Vehicle group: less loss of crypt and epithelium
DSS-induced colitis mice [3]; [5]
  Colon length: 5.6 ± 0.2 cm
  Colon weight: 211 ± 10 mg
  Colon-to-BW ratio: colon-to-body weight ratio: 1.2 ± 0.1%
  BW: body weight on the day of sacrifice: 17.8 ± 0.1 g
DSS-induced colitis mice [3]; [6]
  Colon length: 5.4 ± 0.3 cm
  Colon weight: 211 ± 0.1 mg
  Colon-to-BW ratio: colon-to-body weight ratio: 1.2 ± 0.1%
  BW: body weight on the day of sacrifice: 17.8 ± 0.3 g
DSS-induced colitis mice [3]; Diacerein groups (30 and 60 mg/kg PO QD), 5-day treatment
  body weight changes (in words): maintain the body weights close to the Sham animals
DSS-induced colitis mice [3]; both Diacerein groups (30 and 60 mg/kg PO QD), significant
  increase in body weight on the day of sacrifice than the DSS-induced vehicle group: 6.6%
DSS-induced colitis mice [4]; [5]
  colonic damage score: 4.1 ± 0.1
  diarrhea score: 1.0 ± 0.0
  thickness score: 1.0 ± 0.0
  ulceration score: 2.1 ± 0.1
DSS-induced colitis mice [4]; Diacerein 30 mg/kg, not statistically significant
  decrease in colonic damage score than the DSS-induced vehicle group: 6.8%
DSS-induced colitis mice [4]; Diacerein 60 mg/kg
  diarrhea score vs DSS-induced vehicle group (in words): lower effect on diarrhea score than the DSS-induced vehicle group, but the observed effect was not statistically significant
DSS-induced colitis mice [4]; [6]
  colonic damage score: 3.8 ± 0.1
  thickness score: 0.9 ± 0.0
  ulceration score: 2.0 ± 0.0
DSS-induced colitis mice [4]; Diacerein 60 mg/kg, significant, p<0.05
  decrease in colonic damage score than the DSS-induced vehicle group: 13.6%

## Nc1ccc(O)c(C(=O)O)c1 [Mesalazine, 5-Amino-2-hydroxybenzoic acid]
DSS-induced colitis mice [1]; Mesalazine 20 mg/kg, only at Day 1
  fecal blood score vs Vehicle group (in words): significant reduction
DSS-induced colitis mice [1]; Mesalazine 20 mg/kg, throughout 5-day treatment
  effect on DAI (in words): no effect
DSS-induced colitis mice [1]; Mesalazine 100 mg/kg, Day 1 to 3
  fecal blood score vs Vehicle group (in words): significant reduction
DSS-induced colitis mice [1]; [7]
  Diarrheal stool score vs Vehicle group (in words): significant reduction
  effect on DAI (in words): significant reduction
DSS-induced colitis mice [1]; Mesalazine 100 mg/kg, Day 4 or Day 5
  effect on DAI (in words): no clear reduction in DAI
DSS-induced colitis mice [1]; Mesalazine (60 mg/kg)
  DAI results (in words): effective
  body weight score (in words): significant effects on reducing the body weight score
DSS-induced colitis mice [1]; [8]
  diarrheal stool score (in words): significantly decreased
  fecal blood score (in words): significantly decreased
DSS-induced colitis mice [1]; both Mesalazine groups (20 and 100 mg/kg), Day 4
  body weight score: 1.0-1.3
DSS-induced colitis mice [1]; [9]
  body weight score: 1.6-1.9
  decrease in fecal blood score than the DSS-induced vehicle group: 11.4%
DSS-induced colitis mice [2]; Mesalazine treatment alone (20 and 100 mg/kg)
  loss of crypt and epithelium in HE-stained colon sections vs Vehicle group: No significant effect
DSS-induced colitis mice [2]
  loss/damage of crypt and epithelium in colon sections vs DSS-induced vehicle group: less loss of crypt and epithelium
DSS-induced colitis mice [2]; Mesalazine treatments (20 and 60 mg/kg)
  crypt and epithelium damages induced by DSS, microscopic examination of colon sections: clearly reduced
DSS-induced colitis mice [3]; Mesalazine 20 mg/kg
  colon weight vs DSS-induced vehicle group (in words): significant improvement in colon weight
DSS-induced colitis mice [3]; [10]
  Colon length: 5.0 ± 0.2 cm
  Colon weight: 202 ± 6 mg
DSS-induced colitis mice [3]; [11]
  Colon length: 5.3 ± 0.3 cm
  Colon weight: 202 ± 8 mg
DSS-induced colitis mice [3]; Mesalazine (60 mg/kg)
  colon weight vs DSS-induced vehicle group (in words): lower effect on colon weight than the DSS-induced vehicle group
  prevention of the body weight loss by DSS-induction (in words): able to prevent the body weight loss
DSS-induced colitis mice [3]; both Mesalazine groups (20 and 100 mg/kg PO QD), not statistically significant
  improvement in colon length than the DSS-induced vehicle group: 3-9%
DSS-induced colitis mice [4]; Mesalazine 20 mg/kg
  diarrhea score vs DSS-induced vehicle group (in words): significant decrease in diarrhea score
DSS-induced colitis mice [4]; [10]
  colonic damage score: 3.5 ± 0.2
  thickness score: 1.0 ± 0.0
  ulceration score: 2.0 ± 0.0
DSS-induced colitis mice [4]; Mesalazine 20 mg/kg, significant, p<0.05
  decrease in colonic damage score than the DSS-induced vehicle group: 20.5%
DSS-induced colitis mice [4]; [11]
  colonic damage score: 4.0 ± 0.0
  diarrhea score: 1.0 ± 0.0
  thickness score: 1.0 ± 0.0
  ulceration score: 2.0 ± 0.0
DSS-induced colitis mice [4]; Mesalazine 100 mg/kg, not statistically significant
  decrease in colonic damage score than the DSS-induced vehicle group: 9.1%

## O=C1c2cccc(O)c2C(=O)c2c(O)cc(CO)cc21 [Aloe-emodin, 1,8-Dihydroxy-3-(hydroxymethyl)anthraquinone]
DSS-induced colitis mice [1]; same protocol, dose not given
  DAI results (in words): effective
DSS-induced colitis mice [1]; [12]
  body weight score (in words): significant effects on reducing the body weight score
DSS-induced colitis mice [1]; [13]
  fecal blood score (in words): significant effects on reducing the fecal blood score
DSS-induced colitis mice [2]
  loss/damage of crypt and epithelium in colon sections vs DSS-induced vehicle group: less loss of crypt and epithelium; also recorded: clearly reduced
DSS-induced colitis mice [3]; same protocol, dose not given
  colon-to-body weight ratio vs DSS-induced vehicle group (in words): significant improvement in the colon-to-body weight ratio
  prevention of the body weight loss by DSS-induction (in words): able to prevent the body weight loss

## O=C(O)c1cc(O)c2c(c1)C(=O)c1cccc(O)c1C2=O [Rhein, 4,5-Dihydroxyanthraquinone-2-carboxylic acid]
DSS-induced colitis mice [1]; same protocol, dose not given
  DAI results (in words): effective
DSS-induced colitis mice [1]; [12]
  body weight score (in words): significant effects on reducing the body weight score
DSS-induced colitis mice [1]; [14]
  diarrheal stool score (in words): significant effects on reducing the diarrheal stool score
DSS-induced colitis mice [2]
  loss/damage of crypt and epithelium in colon sections vs DSS-induced vehicle group: less loss of crypt and epithelium; also recorded: clearly reduced
DSS-induced colitis mice [3]; same protocol, dose not given
  colon weight vs DSS-induced vehicle group (in words): significant improvement in colon weight
  colon-to-body weight ratio vs DSS-induced vehicle group (in words): significant reduction in the colon-to-body weight ratio
  prevention of the body weight loss by DSS-induction (in words): able to prevent the body weight loss

## Cc1cc(O)c2c(c1)C(=O)c1cc(O)cc(O)c1C2=O [Emodin, 1,3,8-Trihydroxy-6-methyl-9,10-anthracenedione]
DSS-induced colitis mice [1]; same protocol, dose not given
  DAI results (in words): effective
DSS-induced colitis mice [1]; [12]
  body weight score (in words): significant effects on reducing
DSS-induced colitis mice [1]; [13]
  fecal blood score (in words): significant effects on reducing
DSS-induced colitis mice [1]; [14]
  diarrheal stool score (in words): significant effects on reducing
DSS-induced colitis mice [3]; same protocol, dose not given
  colon weight vs DSS-induced vehicle group (in words): significant improvement in colon weight
  colon-to-body weight ratio vs DSS-induced vehicle group (in words): significant reduction in the colon-to-body weight ratio
  prevention of the body weight loss by DSS-induction (in words): able to prevent the body weight loss
